These results are taken from PMC7956620 (Molecules, 2021).

In the assay the target is T1, human 5-HT3A receptor (Homo sapiens, UniProt P46098).
T1 construct: host or cells: Xenopus laevis oocytes injected with in vitro transcribed mRNA
T1 sequence (P46098 24-478): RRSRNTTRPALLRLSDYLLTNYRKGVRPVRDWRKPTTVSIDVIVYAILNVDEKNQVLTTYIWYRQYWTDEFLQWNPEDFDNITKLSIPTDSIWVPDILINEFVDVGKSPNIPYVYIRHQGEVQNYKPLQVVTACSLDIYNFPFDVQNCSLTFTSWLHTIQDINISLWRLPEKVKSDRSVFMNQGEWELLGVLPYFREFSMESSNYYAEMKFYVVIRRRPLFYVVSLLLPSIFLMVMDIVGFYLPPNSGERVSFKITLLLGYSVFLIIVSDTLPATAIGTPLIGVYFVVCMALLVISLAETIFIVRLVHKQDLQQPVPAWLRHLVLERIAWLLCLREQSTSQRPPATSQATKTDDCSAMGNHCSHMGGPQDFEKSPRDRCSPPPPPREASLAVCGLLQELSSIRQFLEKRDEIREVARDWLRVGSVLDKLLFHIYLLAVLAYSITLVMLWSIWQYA
The assay is described as follows: cell-based. It counts as cell-based. Here is the method:
Human 5-hydroxytryptamine (serotonin) receptor 3A cDNA (Genebank number: BC004453) was obtained from OriGene (Rockville, MD, USA). Figure 1A represents the chemical structure of two ergot alkaloids, EG and EC, obtained from Sigma-Aldrich (St. Louis, MO, USA). These ergot alkaloids were diluted in bath solution after dissolving in dimethyl sulfoxide (DMSO) for use as stock solutions. The final treatment concentration of DMSO was less than 0.01%. Xenopus laevis frogs were obtained from the Korean Xenopus Resource Center for Research (KXRCR000001, Chuncheon, Gangwondo, Korea), and other agents were purchased from Sigma-Aldrich.
To isolate oocytes, female Xenopus laevis were put into a container filled with ice and left for about one hour. When the blood vessels contracted and fell into a state similar to hibernation, the abdomen was incised, and the ovaries were removed and cut into small pieces in Ca^2+-free OR2 solution (82.5 mM NaCl, 2.5 mM KCl, 1 mM MgCl2, and 5 mM HEPES, pH 7.4) with 2 mg/mL collagenase. After a 2 h agitation to digest the follicle membranes, isolated oocytes in stages Ⅴ and Ⅵ were selected and washed repeatedly. The selected oocytes were maintained in ND96 incubation solution (96 mM NaCl, 2 mM KCl, 1.8 mM CaCl2, 1 mM MgCl2, 5 mM HEPES, 2.5 mM sodium pyruvate, and 50 µg/mL gentamycin, pH 7.4) at 16–18 °C. The solution containing the oocytes was changed twice a day and stored in a shaking incubator. Under the microscope, the end of a glass capillary was broken and fitted with a 20 µm diameter needle and filled with mineral oil, discharging air bubbles from the tip. When the Xenopus oocytes were ready for injection, 50 ng of mRNA was injected with a nanoliter injector (Drummond Scientific, Vernon Hills, IL, USA). The recording was started after two days of sufficient shaking incubation in ND96 solution. Surgery, microinjections, and the other handling of Xenopus laevis followed the standard protocols.
The oocytes in which mRNA was expressed during the incubation period allowed for the estimation of channel or receptor properties for observing drug and ligand potential interactions using a two-electrode voltage clamp (OC-725C; Warner Instruments, Hamden, CT, USA) and Digidata (1322A; Molecular Devices, Sunnyvale, CA, USA). The two-electrode voltage clamp had voltage and current electrodes that stably maintained the potential and delivered the transmembrane potential and high current. […] A computer transferred the converted output amplitude of the voltage clamp amplifiers to an input digital converter using pClamp 10 software (Axon Instruments, Union City, CA, USA). The voltage and current electrodes were filled with 3 M KCl (0.3–0.7 MΩ) and analyzed at a −80 mV holding potential. The oocytes were placed in the chamber and exposed to a ND96 solution at a flow rate of 2 mL per minute. In the electrophysiological experiments, the voltage ramp recording was performed at room temperature, and a current from −80 to +60 mV was applied to determine the current and voltage relationships. Inward peak traces of the 5-HT3A receptor and voltage ramp traces were converted to a value through Clampfit 9.0 (Molecular Devices, San Jose, CA, USA).
In the experiments, all data were represented as the mean ± SEM (standard error of the mean) of the 5-HT-stimulated inward peak in the 5-HT3A receptors. […] All curves plotted through the Hill equation were generated using Origin Pro 7.0 (OriginLab, Northampton, MA, USA). The significance of differences between the control and chanoclavine treatment was determined according to the p-value in the Student’s t-test. p-values of less than 0.05 were considered statistically significant.

For `NCCc1c[nH]c2ccc(O)cc12` [5-HT, 5-hydroxytryptamine, reference compound], the “Imax of normalized 5-HT concentration-response current” value amounted to 99.1 ± 14.2.

A word on the inhibition: it is how much of the control response was suppressed. `C[C@@H](CO)NC(=O)[C@@H]1C=C2c3cccc4[nH]cc(c34)C[C@H]2N(C)C1` [ergonovine, reference compound]: the inhibition at 100 µM (100 µM compound with 100 µM 5-HT, −80 mV, read-out: inhibition of I5-HT) was found to be 1.1 ± 4.8%. The “maximum inhibition (Imax)” value (Hill fit, co-application with 100 µM 5-HT, −80 mV) turned out to be 15 ± 5.7%. Further, for the setting “various concentrations with 100 µM 5-HT”, the “effect of co-application with 5-HT on current” value is given as “did not show any noticeable reduction”. Moreover, the “effect of compound alone (without 5-HT)” value (−80 mV holding potential, data not shown) is reported as “no change”.
